Experimental data published in ChEMBL document CHEMBL1128617, “4-Deoxy-4-aminoavermectins with potent broad spectrum antiparasitic activities” (1995).

What was measured:
Format in all cases: functional
[1] = test system: Oesophagostomum columbianum; assay: Antiparasitic activity against Oesophagostomum columbianum at dose of 0.10 mg/kg in sheep anthelmintic test; settings: dose 0.1 mg/kg
[2] = test system: Teladorsagia circumcincta; assay: Antiparasitic activity against Ostertagia circumcincta at dose of 0.10 mg/kg in sheep anthelmintic test; settings: dose 0.1 mg/kg
Haemonchus contortus [3] = assay: Antiparasitic activity against Haemonchus contortus at dose of 0.10 mg/kg in sheep anthelmintic test; settings: dose 0.1 mg/kg
Cooperia [4] = assay: Antiparasitic activity against Cooperia […] at dose of 0.10 mg/kg in sheep anthelmintic test; settings: dose 0.1 mg/kg
Trichostrongylus axei [5] = assay: Antiparasitic activity against Trichostrongylus axei at dose of 0.10 mg/kg in sheep anthelmintic test; settings: dose 0.1 mg/kg
[6] = test system: Trichostrongylus colubriformis; assay: Antiparasitic activity against Trichostrongylus colubriformis at dose of 0.10 mg/kg in sheep anthelmintic test; settings: dose 0.1 mg/kg
Artemia = assay: In vitro antiparasitic activity in brine shrimp assay
[7] = test system: Oesophagostomum columbianum; assay: Antiparasitic activity against Oesophagostomum columbianum at dose of 0.05 mg/kg in sheep anthelmintic test
[8] = test system: Teladorsagia circumcincta; assay: Antiparasitic activity against Ostertagia circumcincta at dose of 0.05 mg/kg in sheep anthelmintic test
Trichostrongylus axei [9] = assay: Antiparasitic activity against Trichostrongylus axei at dose of 0.05 mg/kg in sheep anthelmintic test
Cooperia oncophora = assay: Antiparasitic activity against Cooperia oncophora at dose of 0.05 mg/kg in sheep anthelmintic test
Haemonchus contortus [10] = assay: Antiparasitic activity against Haemonchus contortus at dose of 0.05 mg/kg in sheep anthelmintic test
[11] = test system: Trichostrongylus colubriformis; assay: Antiparasitic activity against Trichostrongylus colubriformis at dose of 0.05 mg/kg in sheep anthelmintic test
Cooperia [12] = assay: Antiparasitic activity against Cooperia […] at dose of 0.05 mg/kg in sheep anthelmintic test

CCC(C)[C@H]1O[C@]2(CC[C@@H]1C)C[C@@H]1C[C@@H](C/C=C(\C)[C@@H](O[C@H]3C[C@H](OC)[C@@H](O[C@H]4C[C@H](OC)[C@H](N)[C@H](C)O4)[C@H](C)O3)[C@@H](C)/C=C/C=C3\CO[C@@H]4[C@H](O)C(C)=C[C@@H](C(=O)O1)[C@]34O)O2 (stereo not given in full)
Reduction [1]: >95% | Reduction [2]: >95% | Reduction (Haemonchus contortus [3]): >95% | Reduction (Cooperia [4]): >95% | Reduction (Trichostrongylus axei [5]): <50% | Reduction [6]: <50% | IC100 (Artemia): 1730 ng/mL

CCC(C)[C@H]1O[C@]2(C=C[C@@H]1C)C[C@@H]1C[C@@H](C/C=C(\C)[C@@H](O[C@H]3C[C@H](OC)[C@@H](O[C@H]4C[C@H](OC)[C@@H](NC(C)=O)[C@H](C)O4)[C@H](C)O3)[C@@H](C)/C=C/C=C3\CO[C@@H]4[C@H](O)C(C)=C[C@@H](C(=O)O1)[C@]34O)O2 (stereo not given in full)
Reduction [7]: >95% | Reduction [8]: <50% | Reduction (Trichostrongylus axei [9]): >95% | Reduction (Cooperia oncophora): >95% | Reduction (Haemonchus contortus [10]): >95% | Reduction [11]: <50% | IC100 (Artemia): 325 ng/mL | Reduction (Cooperia [12]): 76%

CCC(C)[C@H]1O[C@]2(C=C[C@@H]1C)C[C@@H]1C[C@@H](C/C=C(\C)[C@@H](O[C@H]3C[C@H](OC)[C@@H](O[C@H]4C[C@H](OC)[C@H](NC(=O)C(F)(F)F)[C@H](C)O4)[C@H](C)O3)[C@@H](C)/C=C/C=C3\CO[C@@H]4[C@H](O)C(C)=C[C@@H](C(=O)O1)[C@]34O)O2 (stereo not given in full)
Reduction [1]: >95% | Reduction [2]: <50% | Reduction (Haemonchus contortus [3]): >95% | Reduction (Cooperia [4]): >95% | Reduction (Trichostrongylus axei [5]): >95% | Reduction [6]: >95% | IC100 (Artemia): 27800 ng/mL

CCC(C)[C@H]1O[C@]2(C=C[C@@H]1C)C[C@@H]1C[C@@H](C/C=C(\C)[C@@H](O[C@H]3C[C@H](OC)[C@@H](O[C@H]4C[C@H](OC)[C@H](NC(=O)C(C)(C)C)[C@H](C)O4)[C@H](C)O3)[C@@H](C)/C=C/C=C3\CO[C@@H]4[C@H](O)C(C)=C[C@@H](C(=O)O1)[C@]34O)O2 (stereo not given in full)
Reduction [1]: >95% | Reduction [2]: 76% | Reduction (Haemonchus contortus [3]): >95% | Reduction (Cooperia [4]): >95% | Reduction (Trichostrongylus axei [5]): 76% | Reduction [6]: 76% | IC100 (Artemia): 1730 ng/mL

CCC(C)[C@H]1O[C@]2(CC[C@@H]1C)C[C@@H]1C[C@@H](C/C=C(\C)[C@@H](O[C@H]3C[C@H](OC)[C@@H](O[C@H]4C[C@H](OC)[C@H](NC(=O)COC)[C@H](C)O4)[C@H](C)O3)[C@@H](C)/C=C/C=C3\CO[C@@H]4[C@H](O)C(C)=C[C@@H](C(=O)O1)[C@]34O)O2 (stereo not given in full)
Reduction [1]: >95% | Reduction [2]: >95% | Reduction (Haemonchus contortus [3]): >95% | Reduction (Cooperia [4]): >95% | Reduction (Trichostrongylus axei [5]): >95% | Reduction [6]: 76% | IC100 (Artemia): 870 ng/mL

CCC(C)[C@H]1O[C@]2(C=C[C@@H]1C)C[C@@H]1C[C@@H](C/C=C(\C)[C@@H](O[C@H]3C[C@H](OC)[C@@H](O[C@H]4C[C@H](OC)[C@@H](N)[C@H](C)O4)[C@H](C)O3)[C@@H](C)/C=C/C=C3\CO[C@@H]4[C@H](O)C(C)=C[C@@H](C(=O)O1)[C@]34O)O2 (stereo not given in full)
Reduction [1]: >95% | Reduction [2]: >95% | Reduction (Haemonchus contortus [3]): >95% | Reduction (Cooperia [4]): >95% | Reduction (Trichostrongylus axei [5]): <50% | Reduction [6]: <50% | IC100 (Artemia): 2600 ng/mL

CCC(C)[C@H]1O[C@]2(C=C[C@@H]1C)C[C@@H]1C[C@@H](C/C=C(\C)[C@@H](O[C@H]3C[C@H](OC)[C@@H](O[C@H]4C[C@@H](OC)[C@@H](NC(C)=O)[C@H](C)O4)[C@H](C)O3)[C@@H](C)/C=C/C=C3\CO[C@@H]4[C@H](O)C(C)=C[C@@H](C(=O)O1)[C@]34O)O2 (stereo not given in full)
Reduction [7]: >95% | Reduction [8]: >95% | Reduction (Trichostrongylus axei [9]): >95% | Reduction (Cooperia oncophora): 76% | Reduction (Haemonchus contortus [10]): >95% | Reduction [11]: >95% | IC100 (Artemia): 430 ng/mL | Reduction (Cooperia [12]): <50%

CCC(C)[C@H]1O[C@]2(C=C[C@@H]1C)C[C@@H]1C[C@@H](C/C=C(\C)[C@@H](O[C@H]3C[C@H](OC)[C@@H](O[C@H]4C[C@H](OC)[C@H](NCCO)[C@H](C)O4)[C@H](C)O3)[C@@H](C)/C=C/C=C3\CO[C@@H]4[C@H](O)C(C)=C[C@@H](C(=O)O1)[C@]34O)O2 (stereo not given in full)
Reduction [1]: >95% | Reduction [2]: >95% | Reduction (Haemonchus contortus [3]): >95% | Reduction (Cooperia [4]): >95% | Reduction (Trichostrongylus axei [5]): <50% | Reduction [6]: 76% | IC100 (Artemia): 3470 ng/mL

CCCCCCCCN[C@@H]1[C@H](C)O[C@@H](O[C@H]2[C@H](C)O[C@@H](O[C@@H]3/C(C)=C/C[C@@H]4C[C@@H](C[C@]5(C=C[C@H](C)[C@@H](C(C)CC)O5)O4)OC(=O)[C@@H]4C=C(C)[C@@H](O)[C@H]5OC/C(=C\C=C\[C@@H]3C)[C@]54O)C[C@@H]2OC)C[C@@H]1OC (stereo not given in full)
Reduction [1]: <50% | Reduction [2]: <50% | Reduction (Haemonchus contortus [3]): <50% | Reduction (Cooperia [4]): <50% | Reduction (Trichostrongylus axei [5]): <50% | Reduction [6]: <50% | IC100 (Artemia): >55500 ng/mL

CCC(C)[C@H]1O[C@]2(C=C[C@@H]1C)C[C@@H]1C[C@@H](C/C=C(\C)[C@@H](O[C@H]3C[C@H](OC)[C@@H](O[C@H]4C[C@H](OC)[C@H](NC=O)[C@H](C)O4)[C@H](C)O3)[C@@H](C)/C=C/C=C3\CO[C@@H]4[C@H](O)C(C)=C[C@@H](C(=O)O1)[C@]34O)O2 (stereo not given in full)
Reduction [7]: >95% | Reduction [8]: >95% | Reduction (Trichostrongylus axei [9]): >95% | Reduction (Cooperia oncophora): >95% | Reduction (Haemonchus contortus [10]): >95% | Reduction [11]: >95% | IC100 (Artemia): 380 ng/mL | Reduction (Cooperia [12]): >95%

CCC(C)[C@H]1O[C@]2(C=C[C@@H]1C)C[C@@H]1C[C@@H](C/C=C(\C)[C@@H](O[C@H]3C[C@H](OC)[C@@H](O[C@H]4C[C@H](OC)[C@@H](O)[C@H](C)O4)[C@H](C)O3)[C@@H](C)/C=C/C=C3\CO[C@@H]4[C@H](O)C(C)=C[C@@H](C(=O)O1)[C@]34O)O2 (stereo not given in full) [AVERMECTIN]
Reduction [1]: >95% | Reduction [2]: >95% | Reduction (Haemonchus contortus [3]): >95% | Reduction (Cooperia [4]): >95% | Reduction (Trichostrongylus axei [5]): >95% | Reduction [6]: >95% | IC100 (Artemia): 296 ng/mL

CCC(C)[C@H]1O[C@]2(C=C[C@@H]1C)C[C@@H]1C[C@@H](C/C=C(\C)[C@@H](O[C@H]3C[C@H](OC)[C@H](NC(C)=O)[C@H](C)O3)[C@@H](C)/C=C/C=C3\CO[C@@H]4[C@H](O)C(C)=C[C@@H](C(=O)O1)[C@]34O)O2 (stereo not given in full)
Reduction [1]: 76% | Reduction [2]: >95% | Reduction (Haemonchus contortus [3]): <50% | Reduction (Cooperia [4]): <50% | Reduction (Trichostrongylus axei [5]): >95% | Reduction [6]: >95% | IC100 (Artemia): 1300 ng/mL

CCC(C)[C@H]1O[C@]2(C=C[C@@H]1C)C[C@@H]1C[C@@H](C/C=C(\C)[C@@H](O[C@H]3C[C@H](OC)[C@@H](O[C@H]4C[C@H](OC)[C@H](NC(C)=O)[C@H](C)O4)[C@H](C)O3)[C@@H](C)/C=C/C=C3\CO[C@@H]4[C@H](O)C(C)=C[C@@H](C(=O)O1)[C@]34O)O2 (stereo not given in full)
Reduction [7]: >95% | Reduction [8]: >95% | Reduction (Trichostrongylus axei [9]): >95% | Reduction (Haemonchus contortus [10]): >95% | Reduction [11]: >95% | IC100 (Artemia): 540 ng/mL | Reduction (Cooperia [12]): >95%

CCC(C)[C@H]1O[C@]2(C=C[C@@H]1C)C[C@@H]1C[C@@H](C/C=C(\C)[C@@H](O[C@H]3C[C@H](OC)[C@@H](O[C@H]4C[C@H](OC)[C@H](NC(=O)NC)[C@H](C)O4)[C@H](C)O3)[C@@H](C)/C=C/C=C3\CO[C@@H]4[C@H](O)C(C)=C[C@@H](C(=O)O1)[C@]34O)O2 (stereo not given in full)
Reduction [1]: >95% | Reduction [2]: 51% | Reduction (Haemonchus contortus [3]): >95% | Reduction (Cooperia [4]): >95% | Reduction (Trichostrongylus axei [5]): >95% | Reduction [6]: 76% | IC100 (Artemia): 430 ng/mL

CCC(C)[C@H]1O[C@]2(C=C[C@@H]1C)C[C@@H]1C[C@@H](C/C=C(\C)[C@@H](O[C@H]3C[C@H](OC)[C@@H](O[C@H]4C[C@H](OC)[C@H](N)[C@H](C)O4)[C@H](C)O3)[C@@H](C)/C=C/C=C3\CO[C@@H]4[C@H](O)C(C)=C[C@@H](C(=O)O1)[C@]34O)O2 (stereo not given in full)
Reduction [1]: >95% | Reduction [2]: >95% | Reduction (Haemonchus contortus [3]): >95% | Reduction (Cooperia [4]): >95% | Reduction (Trichostrongylus axei [5]): <50% | Reduction [6]: 51% | IC100 (Artemia): 1730 ng/mL

CCC(C)[C@H]1O[C@]2(C=C[C@@H]1C)C[C@@H]1C[C@@H](C/C=C(\C)[C@@H](O[C@H]3C[C@H](OC)[C@@H](O[C@H]4C[C@H](OC)[C@H](NC)[C@H](C)O4)[C@H](C)O3)[C@@H](C)/C=C/C=C3\CO[C@@H]4[C@H](O)C(C)=C[C@@H](C(=O)O1)[C@]34O)O2 (stereo not given in full)
Reduction [1]: >95% | Reduction [2]: >95% | Reduction (Haemonchus contortus [3]): >95% | Reduction (Cooperia [4]): >95% | Reduction (Trichostrongylus axei [5]): >95% | Reduction [6]: 76% | IC100 (Artemia): 1730 ng/mL
